Here are results for 1 compound from patent US20170348337A1, “MULTIFUNCTIONAL MEMBRANE-ACTIVE AMINOGLYCOSIDE-PEPTIDE CONJUGATES” (priority 2014, published 2017).

In brackets after ≈: the same amount, converted by molar mass. Read-outs that look alike come from different tables or passages of the source.

By MIC is commonly meant the least concentration at which growth counts as inhibited.

The test system of assay [1] is E. coli Dh5α persisters. In words: persister cell plate killing assay. Format: cell-based, Escherichia coli. On the procedure:
Procedure for preparing S. aureus SA113 and E. coli Dh5α persister cells were based on previous protocols. Cells from freshly streaked agar plates were inoculated in 1 mL TSB and incubated 16 h at 37° C. in a shaker incubator to obtain stationary phase cultures. Non-persister cells were eliminated by adding ampicillin to a final concentration of 100 μg/mL, followed by 3 h incubation at 37° C.
E. coli cells were pelleted (5000 rpm for 5 min), washed in M9 minimal media and resuspended in M9 minimal media to a final bacteria stock solution of 5×10^7 CFU/mL. 20 μL E. coli suspension was introduced into 180 μL M9 media containing various concentrations of antibiotic (Pentobra, tobramycin) in 96 well plates for a total of 10^6 CFU/well. The plates were sealed with parafilm, loaded onto microplate shakers and placed in a 37° C. incubator for 1.5 h. After incubation, 10-fold serial dilutions were made with M9 media. Half of each dilution (100 μL) was spotted onto LB agar plates and incubated overnight at 37° C. to yield visible colonies. The E. coli persister assays were performed in quadruplicate.
The bactericidal effects of Pentobra against persistent bacteria were investigated with plate killing assays. […]

In assay [2] the test system is P. acnes in comedone extracts. In words: microcomedone assay (human comedone extracts). Particulars: similar drug concentrations (FIG. 11C). Format: cell-based, Propionibacterium acnes.
The test system of assay [3] is Vancomycin-Sensitive Enterococci (VSE). In words: organism not typed. Format: cell-based. As to conditions: read-out: MIC. The source says: Pentobra was screened against a broad panel of microbial pathogens, including strains of E. coli, MRSA, Klebsiella (Kleb), Acinetobacter (AcB), Vancomycin-Sensitive Enterococci (VSE) and Vancomycin-Resistant Enterococci (VRE), and specifically including E. faecalis samples. […] The experimenter reported the minimum inhibitory concentration (MIC) in mass units per unit volume (μg/mL) for each compound, and MIC data were converted into molar concentrations (μM) due to the large difference between the molecular weight of tobramycin (467.5 g/mol) and Pentobra (2277 g/mol).

Assay [4] relates to P. acnes clinical isolates. In words: P. acnes CFU assay, clinical isolates. It is filed as cell-based, Propionibacterium acnes.

In the case of `NC[C@H]1O[C@H](O[C@H]2[C@H](O)[C@@H](O[C@H]3O[C@H](CO)[C@@H](O)[C@H](N)[C@H]3O)[C@H](N)C[C@@H]2N)[C@H](N)C[C@@H]1O` [tobramycin], the “killing activity against persister cells” value in assay [1] (1.5 h, entire range of tested concentrations) is listed as “poor activity”. Moreover, the “activity against persisters at high concentration” value in assay [1] (>50 μM) is “ineffective”. For the same compound, the “reduction in CFU” value in assay [2] was “less than ten”. For the same compound, the MIC in assay [3] (isolate S4895552, VSE, LZD-R) was over 274 µM; in assay [3] (isolate W7171143,VSE), 68 µM (≈ 31.8 µg/mL); in assay [3] (isolate W7214342,VSE) it was over 274 µM; in assay [3] (isolate X4540299, VSE) it was 34 µM (≈ 15.9 µg/mL). Also, the “antimicrobial activity” value in assay [4] (isolates HL063PA2, HL110PA1, HL110PA4) is on record as “did not exhibit significant antimicrobial activity”. The “bactericidal activity” value in assay [4] (strain HL005PA1) is “strongly bactericidal”. Besides, the “activity compared with Pentobra” value in assay [4] (strains HL053PA2 and HL043PA1) is “significantly less active”.
